From patent publication US9273095B2, “Antibiotic peptide and preparation method therefor and application therefor” (priority 2011, dated 2016)
Converted amounts (≈) assume the structure as drawn. Read-outs that look alike come from different tables or passages of the source. Non-standard residues stand in square brackets, D forms with d. Residues, ends and D or L forms follow the SMILES beside them.

Columns and labels:
[1] = RP-HPLC temperature profiling: hydrophobicity and self-association; format: physicochemical; conditions: for tR(min) 5° C. / tR(min) 80° C.: RP-HPLC temperature profiling; for PA (min), association parameter: maximal normalized retention time difference within 5-80° C., self-association ability; for tR(min) Max: maximal retention time during temperature profiling 5-80° C.; for ΔtR(X-Peptide C)(min) 5° C.: retention time difference to control peptide C at 5° C.; for ΔtR(X-Peptide C)(min) 5° C. / ΔtR(X-Peptide C)(min) 80° C.: relative hydrophobicity; for ΔtR(X-Peptide C)(min) 80° C.: retention time difference to control peptide C at 80° C.; for Hydrophobicity tR5: retention time in RP-HPLC at pH 2, 5° C.; for Hydrophobicity tR80: retention time in RP-HPLC at pH 2, 80° C.
Experimental: Peptides are analyzed on an Agilent 1200 series liquid chromatograph (Little Falls, Del.). Runs are performed on a Zorbax 300 SB-C8 column (150×4.6 mm I.D.; 5 μm particle size, 300 Å pore size) from Agilent Technologies using linear AB gradient (1% acetonitrile/min) and a flow rate of 1 ml/min, where solvent A is 0.05% aqueous TFA, pH 2 and solvent B is 0.05% TFA in acetonitrile.
We further use temperature profiling during RP-HPLC to determine the self-association ability of various analogs of PL-13 (SEQ ID NO: 1) which would occur through interaction of the non-polar faces of these amphipathic peptides α-helices. We use 50% TFE aqueous acetonitrile and hydrophobic conditions in the reversed-phase column (hydrophobic stationary phase and the hydrophobic organic solvent in the mobile phase) since the hydrophobic environment of a reversed-phase column also could induce α-helical structure. Since its introduction, the technique of RP-HPLC temperature profiling has been applied on several types of molecules, including cyclic β-sheet peptides, monomeric α-helices and α-helices that dimerize, as well as α-helices that dimerize to form coiled-coils. Although peptides are eluted from a reversed-phase column mainly by an adsorption/desorption mechanism, even a peptide strongly bound to a hydrophobic stationary phase will partition between the matrix and the mobile phase when the acetonitrile content becomes high enough during gradient elution. In summary, the mechanism is based on four assumptions: (i) at low temperature, just as an amphipathic α-helical peptide is able to dimerize in aqueous solution (through its hydrophobic, non-polar face), it will dimerize in solution during partitioning in reversed-phase chromatography; (ii) at higher temperatures, the monomer-dimer equilibrium favors the monomer as the dimer is disrupted; (iii) at sufficiently high temperatures, only monomer is present in solution; and (iv) peptide is always bound in its monomeric helical form to the hydrophobic stationary phase, i.e., the dimer can only be present in solution and disruption of the dimer is required for rebinding to the RP-HPLC matrix.
([θ]222=−3,950). Since peptide C is a monomeric random coil peptide in both aqueous and hydrophobic media, its retention behavior over the temperature range 5-80° C. represents only general temperature effects on peptide retention behavior, i.e., a linear decrease in peptide retention time with increasing temperature due to greater solute diffusivity and enhanced mass transfer between the stationary and mobile phases at higher temperatures. Thus, after normalization to the retention times of peptide C, the retention behavior of the peptides only represents peptide self-association ability. Note that the higher the PA value, the greater the self-association ability. The order of peptide self-association ability of the three pairs of peptide enantiomers is identical to the order of peptide hydrophobicity. Apart from the decrease in retention time due to the general temperature effects noted above, destruction of the α-helix will also occur with increasing temperature, resulting in reduced retention times as the peptides become increasingly random coils.
The retention time data for the peptides is shown in Table 6 which records retention times at 5° C., the maximal retention times and retention times at 80° C. during the temperature profiling. Temperatures of 5-80° C. are the lower and upper temperature limits of temperature profiling in RP-HPLC, representing polymerization of the peptides at 5° C. and the monomerization of peptides at 80° C. due to denaturation of peptides by high temperature and dissociation of the polymers. The maximal retention times represent the threshold points at which peptides totally transform from polymeric to monomeric form. […]

[2] = tested on: Acinetobacter calcoaceticus; assay: microbe, parasite or virus in culture; format: cell-based
Experimental: (§1) The experimental strains are 37 standard strains preserved in lab and clinical isolated bacteria, including drug-resistant bacteria and quality-control bacteria selecting Staphylococcus aureus ATCC29213, Enterococcus faecalis ATCC29212, Escherichia coli ATCC25922, Pseudomonas aeruginosa ATCC27853 and klebsiella pneumoniae ATCC700603.
(§2) (1) Sensitivity test is conducted with two-fold agar dilution method and Denlay multipoint inoculator. Test bacteria are cultured with nutrient broth and brain heart infusion.
(§3) (2) The drug is double diluted into different concentration with MH broth after dissolved and then placed in the plate respectively.
(§4) (3) After dissolved, MH agar culture medium are injected into the plate with drug quantitatively and mixed to make the final concentration of drug are 0.03, 0.06, 0.125, . . . , 128 μg/ml respectively.
(§5) (4) After solidification of the culture medium in the plate, test bacteria (10^4CFU/point) are inoculated by multipoint inoculator and cultured for 18 hours at constant 35° C. Then observe the results.

Enterobacter aerogenes = assay: microbe, parasite or virus in culture; format: cell-based
Experimental: as §1, §2, §3, §4, §5

Enterobacter cloacae = assay: microbe, parasite or virus in culture; format: cell-based
Experimental: as §1, §2, §3, §4, §5

Feilaoti citrobacter = assay: microbe, parasite or virus in culture; format: cell-based
Experimental: as §1, §2, §3, §4, §5

Proteus vulgaris = assay: microbe, parasite or virus in culture; format: cell-based
Experimental: as §1, §2, §3, §4, §5

Salmonella typhimurium = assay: microbe, parasite or virus in culture; format: cell-based; conditions: murium
Experimental: as §1, §2, §3, §4, §5

Serratia marcescens = assay: microbe, parasite or virus in culture; format: cell-based
Experimental: as §1, §2, §3, §4, §5

Escherichia coli = assay: microbe, parasite or virus in culture; format: cell-based; conditions: 08-5 (ESBLs) Extended Spectyumβ-lactamase
Experimental: as §1, §2, §3, §4, §5

Pseudomonas aeruginosa = assay: microbe, parasite or virus in culture; format: cell-based
Experimental: as §1, §2, §3, §4, §5

Shigella flexneri = assay: microbe, parasite or virus in culture; format: cell-based
Experimental: as §1, §2, §3, §4, §5

Shigella sonnei = assay: microbe, parasite or virus in culture; format: cell-based; conditions: Shigella sonnei strains 51592
Experimental: as §1, §2, §3, §4, §5

Shigella = assay: microbe, parasite or virus in culture; format: cell-based
Experimental: as §1, §2, §3, §4, §5

Staphylococcus aureus = assay: microbe, parasite or virus in culture; format: cell-based
Experimental: as §1, §2, §3, §4, §5

Typhoid bacillus H901 = assay: microbe, parasite or virus in culture; format: cell-based
Experimental: as §1, §2, §3, §4, §5

Enterococcus faecalis = assay: organism not typed; format: cell-based; conditions: read-out: MIC
Experimental: as §1, §2, §3, §5

## CC(=O)N[C@H](Cc1ccccc1)C(=O)N[C@H](CCCCN)C(=O)N[C@H](CCCCN)C(=O)N[C@H](Cc1ccccc1)C(=O)N[C@H](CCCCN)C(=O)N[C@H](CCCCN)C(=O)N[C@H](CC(C)C)C(=O)N[C@H](CC(C)C)C(=O)N[C@H](CO)C(=O)N[C@H](CCCCN)C(=O)N[C@H](CC(C)C)C(=O)N[C@H](Cc1c[nH]c2ccccc12)C(=O)N[C@H](CC(N)=O)C(=O)N[C@H](Cc1c[nH]c2ccccc12)C(=O)N[C@H](CCCCN)C(N)=O [PL-43] (Ac-[dF][dK][dK][dF][dK][dK][dL][dL][dS][dK][dL][dW][dN][dW][dK]-NH2; N-terminus and C-terminus assumed)
[1]
  tR(min) 5° C.: 41.64 min
  tR(min) 80° C.: 40.52 min
  PA (min), association parameter: 1.65 min
  tR(min) Max: 41.97 min
  ΔtR(X-Peptide C)(min) 5° C.: 19.08 min
  ΔtR(X-Peptide C)(min) 80° C.: 20.60 min
  Hydrophobicity tR5: 41.64 min
  Hydrophobicity tR80: 40.52 min
[2]
  MIC: 0.3 µM (≈ 0.611 µg/mL)
Enterobacter aerogenes
  MIC: 0.003 µM (≈ 0.00611 µg/mL)
Enterobacter cloacae
  MIC: 0.03 µM (≈ 0.0611 µg/mL)
Feilaoti citrobacter
  MIC: 0.3 µM (≈ 0.611 µg/mL)
Proteus vulgaris
  MIC: 0.3 µM (≈ 0.611 µg/mL)
Salmonella typhimurium
  MIC: 0.3 µM (≈ 0.611 µg/mL)
Serratia marcescens
  MIC: 0.3 µM (≈ 0.611 µg/mL)

## Ac-FKKLKKLFSKLWNWK-NH2 [PL-13]
[1]
  tR(min) 5° C.: 35.75 min
  tR(min) 80° C.: 33.37 min
  PA (min), association parameter: 0.56 min
  tR(min) Max: 35.75 min
  ΔtR(X-Peptide C)(min) 5° C.: 13.19 min
  ΔtR(X-Peptide C)(min) 80° C.: 13.45 min
  Hydrophobicity tR5: 35.75 min
  Hydrophobicity tR80: 33.37 min
[2]
  MIC: .3 µM
Enterobacter aerogenes
  MIC: 2.7 µM
Enterobacter cloacae
  MIC: 1.3 µM
Escherichia coli
  MIC: 0.7 µM
Feilaoti citrobacter
  MIC: 1.3 µM
Proteus vulgaris
  MIC: 0.3 µM
Pseudomonas aeruginosa
  MIC: 1.3 µM
Salmonella typhimurium
  MIC: 1.3 µM
Serratia marcescens
  MIC: 0.3 µM
Shigella flexneri
  MIC: 0.7 µM
Shigella sonnei
  MIC: 0.7 µM
Shigella
  MIC: 0.7 µM
Staphylococcus aureus
  MIC: 0.7 µM
Staphylococcus aureus; 08-49(MSSA) Meticillin susceptible staphylococcus aureus
  MIC: 2.7 µM
Staphylococcus aureus; 08-52(MRSA) Methicillin-resistant staphylococcus aureus
  MIC: 2.7 µM
Typhoid bacillus H901
  MIC: 1.3 µM
Enterococcus faecalis; 06-71 (VRE) Vancomycin-resistant Enterococci
  MIC: 1.7 µM
Enterococcus faecalis; HH22* (AMEs) Aminoglycoside-modifying enzyme
  MIC: 1.7 µM
Enterococcus faecalis
  MIC: 5.3 µM
Enterococcus faecalis; strain 06-7 (listed under Enterococcus faecalis)
  MIC: 1.3 µM
